Source: ChEMBL document CHEMBL3817823 (J Med Chem, 2016)
The source made the active and inactive calls. The rule behind the calls is not given here.

How the values were obtained:
[1] = Oral bioavailability in rat by LC/MS/MS analysis; format: ADME, organism-based; conditions: in vivo
[2] = molecular target: Histone-lysine N-methyltransferase EHMT2 (Homo sapiens) (UniProt Q96KQ7); test: Inhibition of G9A (unknown origin) at 1 to 50 uM by scintillation proximity assay
[3] = molecular target: Histone-lysine N-methyltransferase EHMT1 (Homo sapiens) (UniProt Q9H9B1); test: Inhibition of EHMT1 (unknown origin) at 1 to 50 uM by scintillation proximity assay
Histone-lysine N-methyltransferase EHMT1 (Homo sapiens), sequence (Q9H9B1 whole entry): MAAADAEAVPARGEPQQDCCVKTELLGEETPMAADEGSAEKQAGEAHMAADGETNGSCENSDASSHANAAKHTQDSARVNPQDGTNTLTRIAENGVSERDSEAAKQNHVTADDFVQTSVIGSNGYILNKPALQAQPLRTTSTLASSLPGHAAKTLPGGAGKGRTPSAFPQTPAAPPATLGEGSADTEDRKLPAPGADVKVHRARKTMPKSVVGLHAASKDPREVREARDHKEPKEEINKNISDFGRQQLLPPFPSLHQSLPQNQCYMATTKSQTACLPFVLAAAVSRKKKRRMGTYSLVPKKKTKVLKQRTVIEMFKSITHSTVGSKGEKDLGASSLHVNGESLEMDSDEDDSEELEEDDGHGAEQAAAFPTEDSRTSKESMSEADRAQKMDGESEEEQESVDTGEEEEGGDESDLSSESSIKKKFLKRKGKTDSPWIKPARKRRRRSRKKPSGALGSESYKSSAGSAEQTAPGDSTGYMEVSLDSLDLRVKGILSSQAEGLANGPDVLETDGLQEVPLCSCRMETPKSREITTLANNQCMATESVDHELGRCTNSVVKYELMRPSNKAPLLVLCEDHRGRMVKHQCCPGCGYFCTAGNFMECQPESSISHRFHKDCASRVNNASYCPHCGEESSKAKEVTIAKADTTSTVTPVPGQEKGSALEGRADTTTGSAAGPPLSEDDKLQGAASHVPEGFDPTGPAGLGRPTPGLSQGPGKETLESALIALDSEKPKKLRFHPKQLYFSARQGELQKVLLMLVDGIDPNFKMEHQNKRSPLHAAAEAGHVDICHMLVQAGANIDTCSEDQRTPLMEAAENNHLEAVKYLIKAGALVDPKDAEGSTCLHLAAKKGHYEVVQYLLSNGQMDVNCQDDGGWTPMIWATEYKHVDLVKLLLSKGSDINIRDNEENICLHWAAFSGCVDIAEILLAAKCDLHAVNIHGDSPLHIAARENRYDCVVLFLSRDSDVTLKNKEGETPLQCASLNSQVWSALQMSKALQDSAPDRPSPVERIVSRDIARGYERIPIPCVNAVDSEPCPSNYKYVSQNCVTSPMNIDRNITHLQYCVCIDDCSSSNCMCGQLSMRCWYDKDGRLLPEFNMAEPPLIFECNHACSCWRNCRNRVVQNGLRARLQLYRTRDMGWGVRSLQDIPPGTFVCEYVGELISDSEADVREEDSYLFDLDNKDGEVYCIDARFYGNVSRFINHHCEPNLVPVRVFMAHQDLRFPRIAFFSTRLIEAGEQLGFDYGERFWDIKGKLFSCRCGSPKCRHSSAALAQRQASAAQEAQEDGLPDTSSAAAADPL

[4] = molecular target: Histone-lysine N-methyltransferase 2C (Homo sapiens) (UniProt Q8NEZ4); test: Inhibition of MLL3 (unknown origin) at 1 to 50 uM by scintillation proximity assay

Histone-lysine N-methyltransferase EHMT2 (Homo sapiens), sequence (Q96KQ7 whole entry): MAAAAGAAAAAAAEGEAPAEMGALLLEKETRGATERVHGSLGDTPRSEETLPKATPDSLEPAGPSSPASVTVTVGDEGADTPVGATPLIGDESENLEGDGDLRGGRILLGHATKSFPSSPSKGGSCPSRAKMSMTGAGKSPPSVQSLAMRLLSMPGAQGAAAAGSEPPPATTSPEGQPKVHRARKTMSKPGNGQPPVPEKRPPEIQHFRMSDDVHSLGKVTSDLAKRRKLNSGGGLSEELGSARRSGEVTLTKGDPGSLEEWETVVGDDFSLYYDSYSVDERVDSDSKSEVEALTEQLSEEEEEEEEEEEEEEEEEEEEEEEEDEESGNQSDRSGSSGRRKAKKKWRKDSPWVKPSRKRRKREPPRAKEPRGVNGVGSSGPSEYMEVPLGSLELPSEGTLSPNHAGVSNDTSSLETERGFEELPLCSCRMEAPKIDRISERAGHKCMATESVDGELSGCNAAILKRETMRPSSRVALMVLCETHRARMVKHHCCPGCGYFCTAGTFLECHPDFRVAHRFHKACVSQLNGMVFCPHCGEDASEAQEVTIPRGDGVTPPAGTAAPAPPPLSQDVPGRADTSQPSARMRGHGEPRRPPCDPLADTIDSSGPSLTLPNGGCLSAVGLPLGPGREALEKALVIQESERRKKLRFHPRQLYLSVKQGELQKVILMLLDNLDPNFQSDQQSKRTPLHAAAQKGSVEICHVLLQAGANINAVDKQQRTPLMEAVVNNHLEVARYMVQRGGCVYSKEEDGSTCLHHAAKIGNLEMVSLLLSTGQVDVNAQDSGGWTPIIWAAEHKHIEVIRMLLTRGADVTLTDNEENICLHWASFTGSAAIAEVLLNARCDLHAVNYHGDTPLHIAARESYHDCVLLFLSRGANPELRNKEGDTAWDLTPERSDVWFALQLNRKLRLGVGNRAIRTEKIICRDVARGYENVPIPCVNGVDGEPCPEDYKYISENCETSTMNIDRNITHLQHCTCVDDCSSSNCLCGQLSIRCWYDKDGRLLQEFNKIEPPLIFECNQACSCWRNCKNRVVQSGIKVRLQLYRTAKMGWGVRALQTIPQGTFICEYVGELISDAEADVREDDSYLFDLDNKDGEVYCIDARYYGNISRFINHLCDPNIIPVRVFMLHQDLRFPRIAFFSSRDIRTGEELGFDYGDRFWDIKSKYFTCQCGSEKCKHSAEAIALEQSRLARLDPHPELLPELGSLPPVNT

bioavailability [1]: 24%
inhibition [2]: inactive
inhibition [3]: inactive
inhibition [4]: inactive
SMILES: CCN(C(=O)CO)[C@H]1CN(/C(=N\C#N)Nc2cccc(OC(F)F)c2)N=C1c1ccc(Cl)c(Cl)c1
